Data published in the supplement of paper PMC10307832.

Columns and labels:
CX-5461 + AZD7762 = compound: Cc1cnc(CNC(=O)c2c(=O)c3ccc(N4CCCN(C)CC4)nc3n3c2sc2ccccc23)cn1 [CX-5461] + NC(=O)Nc1cc(-c2cccc(F)c2)sc1C(=O)N[C@H]1CCCNC1 [AZD7762] (partner 0.2 µM); assay: relative viability (nuclei count vs DMSO), 5 days (fraction); higher = more cells survive
How it was run: (§1)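 Lung cancer cell lines in 1536-well plates got either a single drug or a fixed anchor-drug dose together with five library-drug doses (not always all listed) in √10 steps, by pin tool, on the day after seeding. Nuclei were counted after 5 days, and relative viability is the treated-to-vehicle ratio of nuclei counts. Values are medians of duplicate plates.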

CX-5461 + Trametinib = compound: Cc1cnc(CNC(=O)c2c(=O)c3ccc(N4CCCN(C)CC4)nc3n3c2sc2ccccc23)cn1 [CX-5461] + CC(=O)Nc1cccc(-n2c(=O)n(C3CC3)c(=O)c3c(Nc4ccc(I)cc4F)n(C)c(=O)c(C)c32)c1 [Trametinib] (partner 0.02 µM); assay: as above
How it was run: as §1

Row | Cell Line | relative viability (CX-5461 + AZD7762; first compound 0.01 µM) | relative viability (CX-5461 + AZD7762; first compound 0.03162 µM) | relative viability (CX-5461 + AZD7762; first compound 0.1 µM) | relative viability (CX-5461 + AZD7762; first compound 0.3162 µM) | relative viability (CX-5461 + AZD7762; first compound 1 µM) | relative viability (CX-5461 + Trametinib; first compound 0.01 µM) | relative viability (CX-5461 + Trametinib; first compound 0.03162 µM) | relative viability (CX-5461 + Trametinib; first compound 0.1 µM) | relative viability (CX-5461 + Trametinib; first compound 0.3162 µM) | relative viability (CX-5461 + Trametinib; first compound 1 µM)
1 | 201T | 0.6 | 0.682 | 0.621 | 0.543 | 0.491 | 0.706 | 0.73 | 0.693 | 0.75 | 0.721
2 | A-427 | 0.807 | 0.637 | 0.612 | 0.627 | 0.408 | 0.815 | 0.798 | 0.661 | 0.488 | 0.578
3 | ABC-1 | 0.753 | 0.777 | 0.845 |  | 0.608 |  |  |  |  | 
4 | BEN | 0.737 | 0.615 | 0.555 | 0.745 | 0.531 | 0.936 | 0.96 | 1.11 | 1.17 | 1.04
5 | CAL-12T | 0.715 | 0.658 | 0.601 | 0.698 | 0.449 | 0.367 | 0.297 | 0.302 | 0.344 | 0.181
6 | COR-L23 |  |  |  |  |  | 0.779 | 0.727 | 0.556 | 0.435 | 0.366
7 | COR-L 105 |  |  |  |  |  | 0.448 | 0.47 | 0.429 | 0.388 | 0.352
8 | ChaGo-K-1 | 0.976 | 0.909 | 0.758 | 0.478 | 0.698 | 0.875 | 0.978 | 0.874 | 0.922 | 0.849
9 | EKVX | 0.778 | 0.687 | 0.763 |  | 0.45 | 0.389 | 0.306 | 0.482 |  | 0.265
10 | EMC-BAC-2 | 1.06 | 1.04 | 0.864 | 0.919 | 0.566 | 0.91 | 0.888 | 0.629 | 0.45 | 0.429
11 | EPLC-272H | 0.208 | 0.25 | 0.215 |  | 0.259 | 0.27 | 0.308 | 0.268 |  | 0.318
12 | H3255 | 0.967 | 0.82 | 0.943 | 0.834 | 0.794 | 0.614 | 0.639 | 0.671 |  | 0.558
13 | HARA | 0.318 | 0.234 | 0.361 | 0.202 | 0.294 | 0.545 | 0.772 | 0.573 | 0.661 | 0.644
14 | HCC-15 | 1.24 | 1.43 | 1.22 | 1.15 | 1.23 | 0.419 | 0.31 | 0.383 | 0.376 | 0.34
15 | HCC-44 | 1.02 | 1.06 | 0.952 | 0.963 | 0.967 | 0.921 | 1.25 | 1.11 | 1.14 | 1.05
16 | HCC-78 | 0.862 | 0.695 | 0.601 | 0.596 | 0.614 | 0.76 | 0.82 | 0.88 | 0.753 | 0.71
17 | HCC-366 | 0.285 | 0.254 | 0.177 | 0.117 | 0.0411 | 0.345 | 0.389 | 0.443 | 0.412 | 0.306
18 | HCC-827 | 0.193 | 0.195 | 0.193 | 0.22 | 0.182 | 0.509 | 0.583 | 0.617 | 0.494 | 0.582

Row | Cell Line | relative viability (CX-5461 + AZD7762; first compound 0.01 µM) | relative viability (CX-5461 + AZD7762; first compound 0.03162 µM) | relative viability (CX-5461 + AZD7762; first compound 0.1 µM) | relative viability (CX-5461 + AZD7762; first compound 0.3162 µM) | relative viability (CX-5461 + AZD7762; first compound 1 µM) | relative viability (CX-5461 + Trametinib; first compound 0.01 µM) | relative viability (CX-5461 + Trametinib; first compound 0.03162 µM) | relative viability (CX-5461 + Trametinib; first compound 0.1 µM) | relative viability (CX-5461 + Trametinib; first compound 0.3162 µM) | relative viability (CX-5461 + Trametinib; first compound 1 µM)
19 | HOP-62 | 0.643 | 0.854 | 0.424 | 0.194 | 0.356 | 0.404 | 0.37 | 0.388 | 0.419 | 0.363
20 | LC-2-ad | 0.834 | 0.919 | 0.836 | 0.848 | 0.742 | 0.901 | 0.96 | 0.931 | 0.912 | 0.847
21 | LCLC-97TM1 | 0.279 | 0.424 | 0.177 |  | 0.237 | 0.199 | 0.216 | 0.176 | 0.193 | 0.213
22 | LCLC-103H | 0.823 | 0.829 | 0.819 | 0.68 | 0.762 | 0.629 | 0.687 | 0.626 | 0.674 | 0.663
23 | LK-2 | 0.443 | 0.376 | 0.299 |  | 0.223 | 0.83 | 0.818 | 0.834 | 0.707 | 0.725
24 | LOU-NH91 | 0.787 | 0.758 | 0.74 | 0.475 | 0.693 | 0.796 | 0.813 | 0.777 | 0.613 | 0.78
25 | LU99A | 0.44 | 0.303 | 0.212 | 0.245 | 0.122 | 0.596 | 0.488 | 0.477 | 0.389 | 0.634
26 | LXF-289 | 1.16 | 1.12 | 1.08 |  | 0.873 | 0.757 | 0.647 | 0.751 |  | 0.677
27 | NCI-H23 | 0.23 | 0.224 | 0.186 | 0.212 | 0.167 | 0.421 | 0.372 | 0.407 | 0.442 | 0.285
28 | NCI-H322M | 0.531 | 0.517 | 0.526 | 0.523 | 0.509 | 0.441 | 0.542 | 0.55 | 0.407 | 0.508
29 | NCI-H358 | 0.546 | 0.593 | 0.372 | 0.474 | 0.363 | 0.125 | 0.108 | 0.0974 | 0.102 | 0.0846
30 | NCI-H441 | 1 | 1.31 | 1.11 | 1.36 | 0.963 | 0.451 | 0.552 | 0.441 | 0.429 | 0.24
31 | NCI-H460 | 0.627 | 0.513 | 0.295 | 0.563 | 0.046 | 0.21 | 0.142 | 0.0583 | 0.0956 | 0.0222
32 | NCI-H520 |  |  |  |  |  | 0.754 | 0.642 | 0.734 | 0.327 | 0.352
33 | NCI-H522 | 1.09 | 0.98 | 0.713 |  | 0.79 | 0.734 | 0.86 | 0.815 |  | 0.751
34 | NCI-H596 | 1.07 | 1.01 | 0.965 | 1.07 | 0.515 | 0.763 | 0.819 | 0.73 | 0.836 | 0.756
35 | NCI-H647 | 0.617 | 0.384 | 0.489 | 0.439 | 0.0774 | 0.589 | 0.331 | 0.494 | 0.451 | 0.218
